# What was measured:
# [1] = tested on: WSU-NHL; assay: Combination study, ATPLite 72 h, dose matrix (Synergy Score, CI50); settings: combination with Compound 1, 72 h
# Description: (§1) Cells are thawed from a liquid nitrogen preserved state. Once cells have been expanded and divide at their expected doubling times, screening begins. Cells are seeded in growth media in either black 1536-well or 384-well tissue culture treated plates. Cells are then equilibrated in assay plates via centrifugation and placed in incubators attached to the Dosing Modules at 37° C. for 24 hours before treatment. […] These Tzero (To) plates are read using ultra-sensitive luminescence on Envision plate readers (Perkin Elmer). Treated assay plates are incubated with compound for 72 hours. After 72 hours, plates are developed for endpoint analysis using ATPLite. All data points are collected via automated processes, quality controlled and analyzed using Zalicus software.
# (§2) where T is treated cell count and V is untreated (vehicle) cell count (at 72 hours). I ranges from 0% (when T=V) to 100% (when T=0). […] The measure of effect in the experiment can be the inhibition of cellular response relative to the untreated level (vehicle alone). […] The inhibition ranges from 0% at the untreated level to 100% when T=0. Inhibition levels are negative for agents that actually increase levels. Other effect measures, such as an activity ratio r=T/V may be more appropriate for some assays. When activity ratios (e.g, fold increase over stimulated control) are being used, the effect can be measured using an induction 1=ln(T/V). With this definition, all effect expressions are the same as for inhibition.
# (§3) Growth Inhibition (GI) is used as a measure of cell viability. […] A GI reading of 100% represents complete growth inhibition—T72 compound-treated and T0 vehicle signals are matched. […] A GI reading of 200% represents complete death of all cells in the culture well. Compounds reaching an activity plateau of GI 200% are considered cytotoxic. GI is calculated by applying the following test and equation:
# (§4) Combination analysis data were collected in a 6×6 dose matrix. Synergy is calculated by comparing a combination's response to those of its single compound, against the drug-with-itself dose-additive reference model. Deviations from dose additivity may be assessed visually on an isobologram or numerically with a Combination Index (CI). […] Additive effect is CI=1.0. […] Antagonistic effect is CI>1.0.
# (§5) To measure combination effects in excess of Loewe additivity, a scalar measure to characterize the strength of synergistic interaction termed the Synergy Score is devised. The Synergy Score is calculated as:
# (§6) The fractional inhibition for each component agent and combination point in the matrix is calculated relative to the median of all vehicle-treated control wells. The Synergy Score equation integrates the experimentally-observed activity volume at each point in the matrix in excess of a model surface numerically derived from the activity of the component agents using the Loewe model for additivity. Additional terms in the Synergy Score equation (above) are used to normalize for various dilution factors used for individual agents and to allow for comparison of synergy scores across an entire experiment. The inclusion of positive inhibition gating or an Idata multiplier removes noise near the zero effect level, and biases results for synergistic interactions at that occur at high activity levels.
# (§7) Loewe Volume (Loewe Vol) is used to assess the overall magnitude of the combination interaction in excess of the Loewe additivity model. Loewe Volume is particularly useful when distinguishing synergistic increases in a phenotypic activity (positive Loewe Volume) versus synergistic antagonisms (negative Loewe Volume). […] This model defines additivity as a non-synergistic combination interaction where the combination dose matrix surface should be indistinguishable from either drug crossed with itself.
# [2] = tested on: U-2932; assay: as above; settings: combination with Compound 1, 72 h
# [3] = tested on: SU-DHL-10-epst; assay: as above; settings: combination with Compound 1, 72 h
# [4] = tested on: NCI-H929; assay: as above; settings: combination with Compound 1
# Description: as §1, §2, §3, §4, §5, §6, §7
# [5] = tested on: KARPAS-422; assay: as above; settings: combination with Compound 1, 72 h
# [6] = tested on: TMD8; assay: as above; settings: combination with Compound 1; TMD8; 72 h
# Description: as §1, §2, §3, §4
# The isobologram was drawn by identifying the locus of concentrations that correspond to crossing the indicated inhibition level. This is done by finding the crossing point for each single agent concentration in a dose matrix across the concentrations of the other single agent. Practically, each vertical concentration CY is held fixed while a bisection algorithm is used to identify the horizontal concentration CX in combination with that vertical dose that gives the chosen effect level in the response surface Z(CX,CY). These concentrations are then connected by linear interpolation to generate the isobologram display. For synergistic interactions, the isobologram contour fall below the additivity threshold and approaches the origin, and an antagonistic interaction would lie above the additivity threshold. The error bars represent the uncertainty arising from the individual data points used to generate the isobologram. The uncertainty for each crossing point is estimated from the response errors using bisection to find the concentrations where Z−αZ(CX,CY) and Z+σZ(CX,CY) cross Icut, where αZ is the standard deviation of the residual error on the effect scale.
# as §5
# The fractional inhibition for each component agent and combination point in the matrix is calculated relative to the median of all vehicle-treated control wells.
# [7] = tested on: SU-DHL-4-epst; assay: as above; settings: combination with Compound 1, 72 h
# [8] = tested on: Farage; assay: as above; settings: combination with Compound 1; Farage; 72 h
# [9] = tested on: RL; assay: as above; settings: combination with Compound 1, 72 h
# [10] = tested on: DOHH-2; assay: as above; settings: combination with Compound 1, 72 h
# Description: as §1
# The measure of effect in the experiment can be the inhibition of cellular response relative to the untreated level (vehicle alone). […] The inhibition ranges from 0% at the untreated level to 100% when T=0. Inhibition levels are negative for agents that actually increase levels.
# as §3, §4, §5, §6
# Loewe Volume (Loewe Vol) is used to assess the overall magnitude of the combination interaction in excess of the Loewe additivity model. Loewe Volume is particularly useful when distinguishing synergistic increases in a phenotypic activity (positive Loewe Volume) versus synergistic antagonisms (negative Loewe Volume). […] This model defines additivity as a non-synergistic combination interaction where the combination dose matrix surface should be indistinguishable from either drug crossed with itself. The calculation for Loewe additivity is:
# [11] = tested on: HBL-1; assay: as above; settings: combination with Compound 1, 72 h
# [12] = tested on: OCI-Ly7; assay: as above; settings: combination with Compound 1, 72 h
# [13] = tested on: OMP-2; assay: as above; settings: combination with Compound 1; OPM-2
# Description: as §1, §2, §3, §4, §5, §6, §7
# [14] = as above; settings: combination with Compound 1; OPM-2
# Description: as §1, §2, §3, §4, §5, §6, §7
# [15] = tested on: Jeko-1; assay: as above; settings: combination with Compound 1
# Description: as §1, §2, §3, §4, §5, §6, §7
# [16] = tested on: GRANTA-519; assay: as above; settings: combination with Compound 1
# Description: as §1, §2, §3, §4, §5, §6, §7
# [17] = tested on: RPMI-8226; assay: as above; settings: combination with Compound 1
# [18] = tested on: HH; assay: as above; format: cell-based; settings: combination with Compound 1
# Description: The method is described as follows.
# Additive effect is CI=1.0. […] Antagonistic effect is CI>1.0.
# The Synergy Score is calculated as: […]
# [19] = tested on: Mino; assay: as above; settings: combination with Compound 1
# [20] = tested on: KARPAS-299; assay: as above; settings: combination with Compound 1
# Description: as §1, §2, §3, §4, §5, §6, §7
# [21] = tested on: OCI-Ly3; assay: as above; settings: combination with Compound 1; OCI-Ly3; 72 h
structure (smiles),measurement,setting,value
"CC(C)C[C@H](NC(=O)[C@H](CCc1ccccc1)NC(=O)CN1CCOCC1)C(=O)N[C@@H](Cc1ccccc1)C(=O)N[C@@H](CC(C)C)C(=O)[C@@]1(C)CO1 [carfilzomib, (S)-4-methyl-N—((S)-1-(((S)-4-methyl-1-((R)-2-methyloxiran-2-yl)-1-oxopentan-2-yl)amino)-1-oxo-3-phenylpropan-2-yl)-2-((S)-2-(2-morpholinoacetamido)-4-phenylbutanamido)pentanamide]",CI50 growth inhibition,[1],U (U=0.7 to <1)
same,CI50 inhibition,[1],U (U=0.7 to <1)
same,Synergy Score growth inhibition,[1],A2 (A2=1 to <3)
same,Synergy Score inhibition,[1],A1 (A1=0.0001 to <1)
same,CI50 growth inhibition,[2],U (U=0.7 to <1)
same,CI50 inhibition,[2],U (U=0.7 to <1)
same,Synergy Score growth inhibition,[2],A2 (A2=1 to <3)
same,Synergy Score inhibition,[2],A2 (A2=1 to <3)
same,CI50 growth inhibition,[3],U (U=0.7 to <1)
same,CI50 inhibition,[3],U (U=0.7 to <1)
same,Synergy Score growth inhibition,[3],A3 (A3=>3)
same,Synergy Score inhibition,[3],A2 (A2=1 to <3)
same,CI50 growth inhibition,[4],U (U=0.7 to <1)
same,CI50 inhibition,[4],W (W=≥1)
same,Synergy Score growth inhibition,[4],A3 (A3=>3)
same,Synergy Score inhibition,[4],A1 (A1=0.0001 to <1)
same,CI50 growth inhibition,[5],T (T=0.5 to <0.7)
same,CI50 inhibition,[5],U (U=0.7 to <1)
same,Synergy Score growth inhibition,[5],A3 (A3=>3)
same,Synergy Score inhibition,[5],A1 (A1=0.0001 to <1)
same,CI50 growth inhibition,[6],U (U=0.7 to <1)
same,CI50 inhibition,[6],U (U=0.7 to <1)
same,Synergy Score growth inhibition,[6],A3 (A3=>3)
same,Synergy Score inhibition,[6],A2 (A2=1 to <3)
same,CI50 growth inhibition,[7],U (U=0.7 to <1)
same,CI50 inhibition,[7],U (U=0.7 to <1)
same,Synergy Score growth inhibition,[7],A3 (A3=>3)
same,Synergy Score inhibition,[7],A2 (A2=1 to <3)
same,CI50 growth inhibition,[8],U (U=0.7 to <1)
same,CI50 inhibition,[8],U (U=0.7 to <1)
same,Synergy Score growth inhibition,[8],A3 (A3=>3)
same,Synergy Score inhibition,[8],A1 (A1=0.0001 to <1)
same,CI50 growth inhibition,[9],W (W=≥1)
same,CI50 inhibition,[9],W (W=≥1)
same,Synergy Score growth inhibition,[9],A1 (A1=0.0001 to <1)
same,Synergy Score inhibition,[9],A1 (A1=0.0001 to <1)
same,CI50 growth inhibition,[10],U (U=0.7 to <1)
same,CI50 inhibition,[10],U (U=0.7 to <1)
same,Synergy Score growth inhibition,[10],A3 (A3=>3)
same,Synergy Score inhibition,[10],A1 (A1=0.0001 to <1)
same,CI50 growth inhibition,[11],T (T=0.5 to <0.7)
same,CI50 inhibition,[11],U (U=0.7 to <1)
same,Synergy Score growth inhibition,[11],A1 (A1=0.0001 to <1)
same,Synergy Score inhibition,[11],A1 (A1=0.0001 to <1)
same,CI50 growth inhibition,[12],W (W=≥1)
same,CI50 inhibition,[12],W (W=≥1)
same,Synergy Score growth inhibition,[12],A2 (A2=1 to <3)
same,Synergy Score inhibition,[12],A1 (A1=0.0001 to <1)
same,CI50 inhibition,[13],U (U=0.7 to <1)
same,Synergy Score growth inhibition,[13],A2 (A2=1 to <3)
same,Synergy Score inhibition,[13],A1 (A1=0.0001 to <1)
same,CI50 growth inhibition,[14],U (U=0.7 to <1)
same,CI50 growth inhibition,[15],U (U=0.7 to <1)
same,CI50 inhibition,[15],U (U=0.7 to <1)
same,Synergy Score growth inhibition,[15],A1 (A1=0.0001 to <1)
same,Synergy Score inhibition,[15],A1 (A1=0.0001 to <1)
same,CI50 growth inhibition,[16],T (T=0.5 to <0.7)
same,CI50 inhibition,[16],W (W=≥1)
same,Synergy Score growth inhibition,[16],A2 (A2=1 to <3)
same,Synergy Score inhibition,[16],A1 (A1=0.0001 to <1)
same,CI50 growth inhibition,[17],U (U=0.7 to <1)
same,CI50 inhibition,[17],W (W=≥1)
same,Synergy Score growth inhibition,[17],A3 (A3=>3)
same,Synergy Score inhibition,[17],A1 (A1=0.0001 to <1)
same,CI50 growth inhibition,[18],T (T=0.5 to <0.7)
same,CI50 inhibition,[18],T (T=0.5 to <0.7)
same,Synergy Score growth inhibition,[18],A3 (A3=>3)
same,Synergy Score inhibition,[18],A1 (A1=0.0001 to <1)
same,CI50 growth inhibition,[19],U (U=0.7 to <1)
same,CI50 inhibition,[19],U (U=0.7 to <1)
same,Synergy Score growth inhibition,[19],A2 (A2=1 to <3)
same,Synergy Score inhibition,[19],A1 (A1=0.0001 to <1)
same,CI50 growth inhibition,[20],W (W=≥1)
same,CI50 inhibition,[20],W (W=≥1)
same,Synergy Score growth inhibition,[20],A1 (A1=0.0001 to <1)
same,Synergy Score inhibition,[20],A1 (A1=0.0001 to <1)
same,CI50 growth inhibition,[21],U (U=0.7 to <1)
same,CI50 inhibition,[21],W (W=≥1)
same,Synergy Score growth inhibition,[21],A2 (A2=1 to <3)
same,Synergy Score inhibition,[21],A1 (A1=0.0001 to <1)

# Source: patent US20240325398A1, “COMBINATION THERAPIES” (Infinity Pharmaceuticals, Inc., priority 2014, published 2024)
